In ChEMBL document CHEMBL2034882, “Synthesis, biological evaluation and molecular docking studies of novel 2-(1,3,4-oxadiazol-2-ylthio)-1-phenylethanone derivatives” (Bioorg Med Chem, 2012):

Legend:
[1] = test system: MCF7; test: Cytotoxicity against human MCF7 cells after 24 hrs using Annexin VeFITC/propidium iodide staining by MTT assay; assay type: functional, cell-based; settings: MCF7, 24 h
[2] = test system: A-431; test: Cytotoxicity against human A431 cells after 24 hrs […] by MTT assay; assay type: functional, cell-based; settings: A-431, 24 h
[3] = Inhibition of bovine brain FAK after 20 mins by turbidimetry; parameters: species or system Bos taurus
[4] = test system: A-431; test: Induction of apoptosis in human A431 cells assessed as late apoptotic cells at 20 nM after 24 hrs using Annexin VeFITC/propidium iodide staining by flow cytometry; assay type: functional
[5] = test system: A-431; test: Induction of apoptosis in human A431 cells assessed as late apoptotic cells at 5 nM after 24 hrs using Annexin VeFITC/propidium iodide staining by flow cytometry; assay type: functional
[6] = test system: A-431; test: Induction of apoptosis in human A431 cells assessed as early apoptotic cells at 20 nM after 24 hrs using Annexin VeFITC/propidium iodide staining by flow cytometry; assay type: functional
[7] = test system: A-431; test: Induction of apoptosis in human A431 cells assessed as early apoptotic cells at 10 nM after 24 hrs using Annexin VeFITC/propidium iodide staining by flow cytometry; assay type: functional
[8] = test system: A-431; test: Induction of apoptosis in human A431 cells after 24 hrs using Annexin VeFITC/propidium iodide staining by flow cytometry; assay type: functional, cell-based
[9] = test system: A-431; test: Induction of apoptosis in human A431 cells assessed as viable cells at 40 nM after 24 hrs using Annexin VeFITC/propidium iodide staining by flow cytometry; assay type: functional; settings: A-431, 24 h, read-out: Activity
[10] = test system: A-431; test: Induction of apoptosis in human A431 cells assessed as late apoptotic cells at 40 nM after 24 hrs using Annexin VeFITC/propidium iodide staining by flow cytometry; assay type: functional
[11] = test system: A-431; test: Induction of apoptosis in human A431 cells assessed as early apoptotic cells at 5 nM after 24 hrs using Annexin VeFITC/propidium iodide staining by flow cytometry; assay type: functional
[12] = test system: A-431; test: Induction of apoptosis in human A431 cells assessed as necrotic cells at 40 nM after 24 hrs using Annexin VeFITC/propidium iodide staining by flow cytometry; assay type: functional
[13] = test system: A-431; test: Induction of apoptosis in human A431 cells assessed as viable cells at 20 nM after 24 hrs using Annexin VeFITC/propidium iodide staining by flow cytometry; assay type: functional; settings: A-431, 24 h, read-out: Activity
[14] = test system: A-431; test: Induction of apoptosis in human A431 cells assessed as necrotic cells at 20 nM after 24 hrs using Annexin VeFITC/propidium iodide staining by flow cytometry; assay type: functional
[15] = test system: A-431; test: Induction of apoptosis in human A431 cells assessed as viable cells at 10 nM after 24 hrs using Annexin VeFITC/propidium iodide staining by flow cytometry; assay type: functional; settings: A-431, 24 h, read-out: Activity
[16] = test system: A-431; test: Induction of apoptosis in human A431 cells assessed as early apoptotic cells at 40 nM after 24 hrs using Annexin VeFITC/propidium iodide staining by flow cytometry; assay type: functional
[17] = test system: A-431; test: Induction of apoptosis in human A431 cells assessed as viable cells at 5 nM after 24 hrs using Annexin VeFITC/propidium iodide staining by flow cytometry; assay type: functional; settings: A-431, 24 h, read-out: Activity
[18] = test system: A-431; test: Induction of apoptosis in human A431 cells assessed as necrotic cells at 10 nM after 24 hrs using Annexin VeFITC/propidium iodide staining by flow cytometry; assay type: functional
[19] = test system: A-431; test: Induction of apoptosis in human A431 cells assessed as necrotic cells at 5 nM after 24 hrs using Annexin VeFITC/propidium iodide staining by flow cytometry; assay type: functional
[20] = test system: A-431; test: Induction of apoptosis in human A431 cells assessed as late apoptotic cells at 10 nM after 24 hrs using Annexin VeFITC/propidium iodide staining by flow cytometry; assay type: functional

| SMILES | IC50 [3] [nM] | IC50 [1] [nM] | IC50 [2] [nM] | other results |
| --- | --- | --- | --- | --- |
| CCOc1ccccc1-c1nnc(SCC(=O)c2ccc(Br)cc2)o1 | 40500 | 460 | 360 |  |
| O=C(CSc1nnc(-c2ccnc(Cl)c2)o1)c1ccccc1 | 302000 | 1290 | 3200 |  |
| CCOc1ccccc1-c1nnc(SCC(=O)c2ccccc2)o1 | 59800 | 2670 | 650 |  |
| O=C(CSc1nnc(-c2ccncc2)o1)c1ccc(Br)cc1 | 76300 | 4230 | 780 |  |
| COc1ccc(-c2nnc(SCC(=O)c3ccc(Br)cc3)o2)c(O)c1 | 35400 | 260 | 330 |  |
| CN(C)c1ccc(-c2nnc(SCC(=O)c3ccc(Br)cc3)o2)cc1 | 21500 | 550 | 200 |  |
| O=C(CSc1nnc(-c2cccc3ccccc23)o1)c1ccc(Br)cc1 | 17900 | 260 | 160 |  |
| COc1ccc(-c2nnc(SCC(=O)c3ccccc3)o2)c(O)c1 | 20500 | 280 | 180 |  |
| CC(C)(C)c1ccc(-c2nnc(SCC(=O)c3ccccc3)o2)cc1 | 18600 | 50 | 170 |  |
| CN[C@@H]1C[C@H]2O[C@@](C)([C@@H]1OC)n1c3ccccc3c3c4c(c5c6ccccc6n2c5c31)C(=O)NC4 [STAUROSPORINE] |  |  | 70 |  |
| O=C(CSc1nnc(-c2ccccc2F)o1)c1ccc(Br)cc1 | 19800 | 240 | 200 |  |
| O=C(CSc1nnc(-c2ccncc2)o1)c1ccccc1 | 98700 | 370 | 1000 |  |

The remaining compounds from weak to strong by IC50 [3], led by results:

| IC50 [3] [nM] | SMILES | IC50 [1] [nM] | IC50 [2] [nM] | other results |
| --- | --- | --- | --- | --- |
| 17500 | CN(C)c1ccc(-c2nnc(SCC(=O)c3ccccc3)o2)cc1 | 210 | 160 |  |
| 9800 | CC(C)(C)c1ccc(-c2nnc(SCC(=O)c3ccc(Br)cc3)o2)cc1 | 1950 | 100 |  |
| 5800 | O=C(CSc1nnc(-c2cccc3ccccc23)o1)c1ccccc1 | 230 | 130 |  |
| 2670 | Cc1ccc(-c2nnc(SCC(=O)c3ccc(Br)cc3)o2)c(O)c1 | 2070 | 50 |  |
| 1350 | COc1ccccc1-c1nnc(SCC(=O)c2ccc(Br)cc2)o1 | 600 | 80 |  |
| 1220 | O=C(CSc1nnc(-c2ccccc2F)o1)c1ccccc1 | 260 | 50 |  |
| 1150 | Nc1cc(-c2nnc(SCC(=O)c3ccc(Br)cc3)o2)ccn1 | 200 | 60 |  |
| 1080 | COc1cc(OC)cc(-c2nnc(SCC(=O)c3ccc(Br)cc3)o2)c1 | 270 | 60 |  |
| 970 | O=C(CSc1nnc(-c2ccnc(Cl)c2)o1)c1ccc(Br)cc1 | 270 | 50 |  |
| 760 | Cc1ccc(-c2nnc(SCC(=O)c3ccccc3)o2)c(O)c1 | 150 | 60 |  |
| 650 | COc1cc(OC)cc(-c2nnc(SCC(=O)c3ccccc3)o2)c1 | 170 | 40 |  |
| 580 | COc1ccccc1-c1nnc(SCC(=O)c2ccccc2)o1 | 2070 | 20 |  |
| 20 | Nc1cc(-c2nnc(SCC(=O)c3ccccc3)o2)ccn1 | 140 | 10 | Activity [4]: 15.26%; Activity [5]: 9.47%; Activity [6]: 28.92%; Activity [7]: 17.47%; Activity [8]: Dose-dependent effect; viability at 0.04 µM [9]: 33.8%; Activity [10]: 16.65%; Activity [11]: 16.77%; Activity [12]: 6%; viability at 0.02 µM [13]: 49.8%; Activity [14]: 6%; viability at 0.01 µM [15]: 61.3%; Activity [16]: 43.51%; viability at 0.005 µM [17]: 65.8%; Activity [18]: 9%; Activity [19]: 8%; Activity [20]: 12.23% |
